Results on 35 compounds are retold here after US6960614B2, “Oxygenated esters of 4-lodo phenylamino benzhydroxamic acids” (Warner-Lambert Company, priority 2000, dated 2005).

Bounds are passed on as bounds.

One series deals with MEK. Put plainly: Cellular Assay for Measuring MEK Inhibition (inhibition of ERK phosphorylation in C26 cells, Western blot). In kind it is cell-based, murine. The note with it: inhibition of ERK phosphorylation in murine colon 26 (C26) carcinoma cells; determined graphically from dose response curve. The procedure, abridged:
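Exponentially growing murine colon 26 (C26) carcinoma cells treated with varying compound concentrations at 37° C, then lysed. Western blot with antibody to dually phosphorylated ERK1/ERK2; blots stripped and re-probed for total ERK1/ERK2.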
Background: In western blotting, separated proteins are transferred to a membrane and probed.

By IC50 is commonly meant the midpoint of a concentration-inhibition curve. In general, melting point refers to the temperature, or range, at which the solid turns liquid. Consider `O=C(NOCCO)c1cc(F)c(F)c(F)c1Nc1ccc(I)cc1Cl` [Example 6, 2-(2-Chloro-4-iodo-phenylamino)-3,4,5-trifluoro-N-(2-hydroxy-ethoxy)-benzamide], for which the melting point lay within 183 to 184.5 °C. Besides, the IC50 in the series with MEK is 5 nM.
As to `O=C(NOCCO)c1cc(Cl)c(F)c(F)c1Nc1ccc(I)cc1` [Example 7, 5-Chloro-3,4-difluoro-N-(2-hydroxy-ethoxy)-2-(4-iodo-phenylamino)-benzamide], the melting point lay in the range of 174 to 176 °C. Besides, in the series with MEK, the half-maximal inhibitory concentration (IC50) was 5 nM.
`O=C(NOCCO)c1ccc(F)cc1Nc1ccc(I)cc1F` [Example 8, 4-Fluoro-2-(2-fluoro-4-iodo-phenylamino)-N-(2-hydroxy-ethoxy)-benzamide] had a melting point of 117 to 119 °C. This compound returned an IC50 in the series with MEK of 0.3 nM.
As to `O=C(NOCCO)c1cc(Cl)c(F)c(F)c1Nc1ccc(I)cc1F` [Example 10, 5-Chloro-3,4-difluoro-2-(2-fluoro-4-iodo-phenylamino)-N-(2-hydroxy-ethoxy)-benzamide], the melting point was 180 to 180.5 °C. This compound gave a half-inhibitory concentration (IC50) in the series on MEK of 0.3 nM.
On to `O=C(NOCCO)c1cc(Br)c(F)c(F)c1Nc1ccc(I)cc1F` [Example 11, 5-Bromo-3,4-difluoro-2-(2-fluoro-4-iodo-phenylamino)-N-(2-hydroxy-ethoxy)-benzamide], for which the melting point was 189 to 190 °C. In addition, the IC50 in the series on MEK was 2 nM.
Consider `Cc1cc(I)ccc1Nc1cc(F)c(F)cc1C(=O)NOCCO` [Example 12, 4,5-Difluoro-N-(2-hydroxy-ethoxy)-2-(4-iodo-2-methyl-phenylamino)-benzamide], for which the melting point fell in the range of 151.2 to 152.5 °C. Besides, in the series on MEK, 22 nM corresponded to half-maximal inhibition (IC50).
Consider `Cc1cc(I)ccc1Nc1c(C(=O)NOCCO)cc(Br)c(F)c1F` [Example 13, 5-Bromo-3,4-difluoro-N-(2-hydroxy-ethoxy)-2-(4-iodo-2-methyl-phenylamino)-benzamide], for which the melting point was 208.2 to 209.6 °C. The compound further gave a concentration for half-maximal inhibition (IC50) in the series with MEK of 2 nM.
For `O=C(NOCCO)c1cc(Br)c(F)c(F)c1Nc1ccc(I)cc1Cl` [Example 14, 5-Bromo-2-(2-chloro-4-iodo-phenylamino)-3,4-difluoro-N-(2-hydroxy-ethoxy)-benzamide], in that order: 190.2 to 200.2 °C and 2 nM.
Regarding `Cc1cc(I)ccc1Nc1c(C(=O)NOCCO)cc(Cl)c(F)c1F` [Example 15], the melting point was 199.1 to 200.8 °C. The compound further had a half-maximal inhibitory concentration (IC50) in the series with MEK of 1 nM.
For `Cc1cc(I)ccc1Nc1cc(F)c(Br)cc1C(=O)NOCCO` [Example 16, 5-Bromo-4-fluoro-N-(2-hydroxy-ethoxy)-2-(4-iodo-2-methyl-phenylamino)-benzamide], in that order: 154.4 to 156.4 °C and 20 nM.
Consider `O=C(NOCCO)c1cc(Br)c(F)cc1Nc1ccc(I)cc1F` [Example 19], for which the melting point is 173 to 175 °C. The compound also showed an IC50 in the series with MEK of 1 nM.
Consider `O=C(NOCCO)c1cc(Cl)c(F)c(F)c1Nc1ccc(I)cc1Cl` [Example 20, 5-Chloro-2-(2-chloro-4-iodo-phenylamino)-3,4-difluoro-N-(2-hydroxy-ethoxy)-benzamide], for which the melting point lay within 178 to 181 °C. The same compound returned a half-inhibitory concentration (IC50) with MEK of 3 nM.
For `O=C(NOCCO)c1cc(F)c(F)c(F)c1Nc1ccc(I)cc1F` [Example 21, 3,4,5-Trifluoro-2-(2-fluoro-4-iodo-phenylamino)-N-(2-hydroxy-ethoxy)-benzamide], in that order: 185 to 187 °C and 1.8 nM.
For `O=C(NOCCO)c1ccc(F)c(F)c1Nc1ccc(Br)cc1F` [Example 22, 2-(4-Bromo-2-fluoro-phenylamino)-3,4-difluoro-N-(2-hydroxy-ethoxy)-benzamide], the melting point lay in the range of 146.1 to 146.4 °C. Further, the IC50 in the series on MEK stood at 7.7 nM.
Compound `O=C(NOCCO)c1cc(F)c(F)cc1Nc1ccc(Br)cc1F` [Example 23, 2-(4-Bromo-2-fluoro-phenylamino)-4,5-difluoro-N-(2-hydroxy-ethoxy)-benzamide] had a melting point of 190.8 to 192.5 °C. Moreover, it took 32 nM to reach half-maximal inhibition in the series with MEK (IC50).
For `O=C(NOCCO)c1ccc(F)c(F)c1Nc1ccc(Cl)cc1F` [Example 24, 2-(4-Chloro-2-fluoro-phenylamino)-3,4-difluoro-N-(2-hydroxy-ethoxy)-benzamide], in that order: 142.1 to 142.5 °C and 26 nM.
As for `O=C(NOCCO)c1ccc(F)c(F)c1Nc1ccccc1F` [Example 25, 3,4-Difluoro-2-(2-fluoro-phenylamino)-N-(2-hydroxy-ethoxy)-benzamide], the melting point was 129.6 to 130.4 °C. The same compound returned an IC50 with MEK of 52 nM.
Turning to `O=C(NOCCO)c1cc(Cl)c(F)c(F)c1Nc1ccc(F)cc1F` [Example 26, 5-Chloro-2-(2,4-difluoro-phenylamino)-3,4-difluoro-N-(2-hydroxy-ethoxy)-benzamide], the melting point fell in the range of 161.6 to 162.4 °C. Further, in the series with MEK, the IC50 came to 240 nM.
In turn, `O=C(NOCCO)c1ccc(F)c(F)c1Nc1ccc(F)cc1F` [Example 27, 2-(2,4-Difluoro-phenylamino)-3,4-difluoro-N-(2-hydroxy-ethoxy)-benzamide] displayed a melting point of 141.1 to 141.6 °C. The compound further registered an IC50 in the series on MEK of 120 nM.
Turning to `Cc1cc(I)ccc1Nc1cc(F)ccc1C(=O)NOCCCO` [Example 28, 4-Fluoro-N-(3-hydroxy-propoxy)-2-(4-iodo-2-methyl-phenylamino)-benzamide], the melting point lay within 120.8 to 122.4 °C. This compound also had a 50% inhibitory concentration (IC50) with MEK of 120 nM.
Take `Cc1cc(I)ccc1Nc1c(C(=O)NOCCCO)cc(Cl)c(F)c1F` [Example 29, 5-Chloro-3,4-difluoro-N-(3-hydroxy-propoxy)-2-(4-iodo-2-methyl-phenylamino)-benzamide]: the melting point fell in the range of 155.2 to 156.6 °C. The same compound gave a half-maximal inhibitory concentration (IC50) in the series with MEK of 47 nM.
In turn, `O=C(NOCCCO)c1ccc(F)cc1Nc1ccc(I)cc1Cl` [Example 30] displayed a melting point of 158.8 to 160.8 °C. The compound also returned a 50% inhibitory concentration (IC50) with MEK of 130 nM.
Turning to `O=C(NOCCCCO)c1ccc(F)c(F)c1Nc1ccc(I)cc1F` [Example 33], the melting point is 131.4 to 131.9 °C. In the series on MEK, this compound registered an IC50 of 5 nM.
Compound `Cc1cc(I)ccc1Nc1c(C(=O)NOCC(O)CO)cc(Cl)c(F)c1F` (stereo not shown) [Example 35, 5-Chloro-N-(2,3-dihydroxy-propoxy)-3,4-difluoro-2-(4-iodo-2-methyl-phenylamino)-benzamide] returned a melting point of 67 to 69 °C. In the series on MEK, this compound returned an IC50 of 6 nM.
Compound `Cc1cc(I)ccc1Nc1c(C(=O)NOCCC(O)CO)cc(Cl)c(F)c1F` (stereo not shown) [Example 36, 5-Chloro-N-(3,4-dihydroxy-butoxy)-3,4-difluoro-2-(4-iodo-2-methyl-phenylamino)-benzamide] displayed a melting point of 135 to 138 °C. Further, in the series on MEK, the half-inhibitory concentration (IC50) was 53 nM.
In the case of `O=C(NOCCC(O)CO)c1cc(Cl)c(F)c(F)c1Nc1ccc(I)cc1Cl` (stereo not shown) [Example 37, 5-Chloro-2-(2-chloro-4-iodo-phenylamino)-N-(3,4-dihydroxy-butoxy)-3,4-difluoro-benzamide], the melting point is 146 to 148 °C. In addition, half-maximal inhibition in the series on MEK (IC50) required 30 nM.
The compound `CC1(C)OCC(CONC(=O)c2ccc(F)c(F)c2Nc2ccc(I)cc2F)O1` (stereo not shown) [Example 38, N-(2,2-Dimethyl-[1,3]dioxolan-4-ylmethoxy)-3,4-difluoro-2-(2-fluoro-4-iodo-phenylamino)-benzamide] came in with a melting point of 114 to 115 °C. In the series on MEK, this compound displayed a half-maximal inhibitory concentration (IC50) of more than 1000 nM.
Compound `O=C(NOCC(O)CO)c1ccc(F)cc1Nc1ccc(I)cc1F` (stereo not shown) [Example 42, N-(2,3-Dihydroxy-propoxy)-4-fluoro-2-(2-fluoro-4-iodo-phenylamino)-benzamide] gave a melting point of 173 to 175 °C. This compound also had a half-inhibitory concentration (IC50) in the series on MEK of 2.7 nM.
For `O=C(NOCC(O)CO)c1cc(F)c(F)c(F)c1Nc1ccc(I)cc1F` (stereo not shown) [Example 43, N-(2,3-Dihydroxy-propoxy)-3,4,5-trifluoro-2-(2-fluoro-4-iodo-phenylamino)-benzamide], in that order: 157 to 160 °C and 1.8 nM.
With `O=C(NOCC(O)CO)c1ccc(F)c(F)c1Nc1ccc(Br)cc1F` (stereo not shown) [Example 44], the melting point was 110 to 117 °C (dec.). In the series on MEK, this compound showed a half-maximal inhibitory concentration (IC50) of 3 nM.
The compound `O=C(NOCC(O)CO)c1ccc(F)c(F)c1Nc1ccc(Cl)cc1F` (stereo not shown) [Example 45, 2-(4-Chloro-2-fluoro-phenylamino)-N-(2,3-dihydroxy-propoxy)-3,4-difluoro-benzamide] gave a melting point of 114 to 114.9 °C. For the same compound, in the series with MEK, half-maximal inhibition (IC50) required 19 nM.
`CC1(C)OCC(ONC(=O)c2ccc(F)c(F)c2Nc2ccc(I)cc2F)CO1` [Example 46, N-(2,2-Dimethyl-[1,3]dioxan-5-yloxy)-3,4-difluoro-2-(2-fluoro-4-iodo-phenylamino)-benzamide] registered a melting point of 154 to 155 °C. Moreover, in the series with MEK, the IC50 was found to be 582 nM.
For `O=C(NOC(CO)CO)c1ccc(F)c(F)c1Nc1ccc(I)cc1F` [Example 47, 3,4-Difluoro-2-(2-fluoro-4-iodo-phenylamino)-N-(2-hydroxy-1-hydroxymethyl-ethoxy)-benzamide], in that order: 111 to 114 °C and 1 nM.
For `O=C(NOC(CO)CO)c1cc(Cl)c(F)c(F)c1Nc1ccc(I)cc1F` [Example 48, 5-Chloro-3,4-difluoro-2-(2-fluoro-4-iodo-phenylamino)-N-(2-hydroxy-1-hydroxymethyl-ethoxy)-benzamide], in that order: 173 to 175 °C and 1.6 nM.
`O=C(NOC[C@H](O)CO)c1cc(Cl)c(F)c(F)c1Nc1ccc(I)cc1Cl` [Example 51, 5-Chloro-2-(2-chloro-4-iodo-phenylamino)-N-[(R)-2,3-dihydroxy-propoxy]-3,4-difluoro-benzamide] returned a melting point of 155 to 156 °C. The compound further had an IC50 in the series on MEK of 3.8 nM.
